Tests used:
Cbl-b [1] = molecular target: T1, Cbl-b (Homo sapiens, UniProt Q13191); experiment: Cbl-b Degradation Method A (FACS, anti-Cbl-b antibody staining); type: cell-based; details: for DC50: half maximal degradation, read-out: Cbl-b Degredation Method A IC50; for Dmax: Jurkat, read-out: Cbl-b Degredation Method A Dmax (%)
T1 construct: Cbl-b-HiBit KI Jurkat Cells were purchased from Promega; host or cells: Cbl-b-HiBiT knock-in Jurkat cells
Procedure, shortened: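 Readout is flow cytometry of fixed, permeabilized cells immunostained for Cbl-b (primary 1:200, AF488 secondary). Cells were Cbl-b-HiBit knock-in Jurkat, exposed to compound ≥20 h at 37 °C; half-maximal degradation concentration (DC50) and maximal degradation (Dmax) calculated relative to control.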

Cbl-b [2] = molecular target: T1, Cbl-b; experiment: Cbl-b Degradation Method B (Nano-Glo HiBiT lytic detection); type: cell-based; details: Cbl-b-HiBit KI Jurkat Cells, incubated at least 6-24 hours; for DC50: half maximal degradation, read-out: Cbl-b Degredation Method B IC50; for Dmax / Cbl-b Degredation Method B Dmax (%): maximum degradation observed; for Dmax: read-out: Cbl-b Degredation Method B Dmax (%)
Procedure, shortened: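 An 11-point, 3-fold compound dilution was applied for 6-24 hours to Jurkat cells carrying HiBiT-tagged endogenous Cbl-b. Lytic HiBiT luminescence quantified residual protein. Outputs are DC50 and Dmax relative to DMSO control.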

[3] = Cbl-b-HiBit KI Jurkat Cells, incubated at least 20 hours
[4] = Cbl-b-HiBit KI Jurkat Cells, incubated at least 20 hours, maximum degradation observed

T1 sequence (Q13191 whole entry): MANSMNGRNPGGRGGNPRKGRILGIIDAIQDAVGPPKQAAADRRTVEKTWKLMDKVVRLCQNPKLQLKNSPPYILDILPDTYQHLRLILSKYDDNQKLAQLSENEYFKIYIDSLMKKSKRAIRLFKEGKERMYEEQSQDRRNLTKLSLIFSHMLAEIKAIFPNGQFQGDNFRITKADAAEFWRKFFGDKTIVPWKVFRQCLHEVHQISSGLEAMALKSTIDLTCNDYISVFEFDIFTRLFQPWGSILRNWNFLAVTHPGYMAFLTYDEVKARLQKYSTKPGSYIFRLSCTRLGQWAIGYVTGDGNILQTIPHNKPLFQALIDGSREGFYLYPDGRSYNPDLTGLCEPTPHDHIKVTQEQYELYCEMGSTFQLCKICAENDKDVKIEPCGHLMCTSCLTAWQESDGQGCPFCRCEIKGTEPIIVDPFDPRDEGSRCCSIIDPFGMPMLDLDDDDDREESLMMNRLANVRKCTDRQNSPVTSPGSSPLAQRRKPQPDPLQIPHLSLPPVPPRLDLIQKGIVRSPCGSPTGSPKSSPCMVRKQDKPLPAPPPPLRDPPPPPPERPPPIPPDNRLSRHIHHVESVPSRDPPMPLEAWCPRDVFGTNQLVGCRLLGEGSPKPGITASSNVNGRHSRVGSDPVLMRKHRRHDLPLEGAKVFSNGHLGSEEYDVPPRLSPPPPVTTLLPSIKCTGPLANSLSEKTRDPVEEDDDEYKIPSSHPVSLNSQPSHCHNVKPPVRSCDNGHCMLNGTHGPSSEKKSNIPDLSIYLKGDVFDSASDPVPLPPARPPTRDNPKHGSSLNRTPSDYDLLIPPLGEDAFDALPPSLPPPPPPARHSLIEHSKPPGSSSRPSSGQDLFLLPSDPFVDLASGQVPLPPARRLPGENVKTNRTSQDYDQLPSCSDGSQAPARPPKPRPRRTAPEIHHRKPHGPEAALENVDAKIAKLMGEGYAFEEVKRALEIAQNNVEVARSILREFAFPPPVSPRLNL

DC50 (Cbl-b [1]; [3]) | Dmax (Cbl-b [1]; [4]) | DC50 (Cbl-b [2]) | Dmax (Cbl-b [2]) | Cbl-b Degredation Method B Dmax (%) (Cbl-b [2]) | Structure (SMILES) | Dmax (Cbl-b [1])
< 5 nM | > 70% | < 5 nM | 35 to 70% |  | CC1CN(Cc2cc3c(c(C(F)(F)F)c2)CN(c2cccc(C4(Cc5nncn5C)COC4)c2)C3=O)CCN1C[C@H]1CC[C@H](OC2CCN(c3ccc4c(c3F)CN(C3CCC(=O)NC3=O)C4=O)CC2)CC1 (some centres unmarked) [Example 196, 3-[4-fluoro-1-oxo-5-(4-{[(1r,4r)-4-[(2-methyl-4-{[2-(3-{3-[(4-methyl-4H-1,2,4-triazol-3-yl)methyl]oxetan-3-yl}phenyl)-3-oxo-7-(trifluoromethyl)-2,3-dihydro-1H-isoindol-5-yl]methyl}piperazin-1-yl)methyl]cyclohexyl]oxy}piperidin-1-yl)-2,3-dihydro-1H-isoindol-2-yl]piperidine-2,6-dione] | 
50 to 500 nM |  | > 500 nM |  |  | Cn1cnnc1CC1(c2cccc(N3Cc4c(cc(CN5CCC[C@H](CN6CCC(CC7CCN(c8ccc9c(c8)C(=O)N(C8CCC(=O)NC8=O)C9=O)CC7)CC6)C5)cc4C(F)(F)F)C3=O)c2)COC1 (stereo partly drawn) [Example 111, 2-(2,6-dioxopiperidin-3-yl)-5-{4-[(1-{[(3R)-1-{[2-(3-{3-[(4-methyl-4H-1,2,4-triazol-3-yl)methyl]oxetan-3-yl}phenyl)-3-oxo-7-(trifluoromethyl)-2,3-dihydro-1H-isoindol-5-yl]methyl}piperidin-3-yl]methyl}piperidin-4-yl)methyl]piperidin-1-yl}-2,3-dihydro-1H-isoindole-1,3-dione] | 
50 to 500 nM | 35 to 70% | 5 to 50 nM |  | C (C ≤ 35) | CC(C)n1c(=O)n(C2CCC(=O)NC2=O)c2cccc(N3CCC(O[C@H]4CC[C@H](CN5CCN(Cc6cc7c(c(C(F)(F)F)c6)CN(c6cccc([C@]8(Cc9nncn9C)C[C@@H](C#N)C8)c6)C7=O)C(C)(C)C5)CC4)CC3)c21 (some centres unmarked) [Example 302, (1r,3r)-3-(3-{6-[(2,2-dimethyl-4-{[(1r,4r)-4-({1-[1-(2,6-dioxopiperidin-3-yl)-2-oxo-3-(propan-2-yl)-2,3-dihydro-1H-1,3-benzodiazol-4-yl]piperidin-4-yl}oxy)cyclohexyl]methyl}piperazin-1-yl)methyl]-1-oxo-4-(trifluoromethyl)-2,3-dihydro-1H-isoindol-2-yl}phenyl)-3-[(4-methyl-4H-1,2,4-triazol-3-yl)methyl]cyclobutane-1-carbonitrile] | 
> 500 nM |  | > 500 nM |  |  | Cn1cnnc1CC1(c2cccc(N3Cc4c(cc(CN5CCC[C@H](CN6CCC(CN7CCN(c8ccc9c(c8)C(=O)N(C8CCC(=O)NC8=O)C9=O)CC7)CC6)C5)cc4C(F)(F)F)C3=O)c2)COC1 (stereo partly drawn) [Example 101, 2-(2,6-dioxopiperidin-3-yl)-5-{4-[(1-{[(3R)-1-{[2-(3-{3-[(4-methyl-4H-1,2,4-triazol-3-yl)methyl]oxetan-3-yl}phenyl)-3-oxo-7-(trifluoromethyl)-2,3-dihydro-1H-isoindol-5-yl]methyl}piperidin-3-yl]methyl}piperidin-4-yl)methyl]piperazin-1-yl}-2,3-dihydro-1H-isoindole-1,3-dione] | 
> 500 nM |  | > 500 nM |  |  | Cn1cnnc1CC1(c2cccc(N3Cc4c(cc(CN5CCCC(CN6CCN(c7ccc8c(c7)C(=O)N(C7CCC(=O)NC7=O)C8=O)CC6)C5)cc4C(F)(F)F)C3=O)c2)COC1 (centres unmarked) [Example 76, 2-(2,6-dioxopiperidin-3-yl)-5-{4-[(1-{[2-(3-{3-[(4-methyl-4H-1,2,4-triazol-3-yl)methyl]oxetan-3-yl}phenyl)-3-oxo-7-(trifluoromethyl)-2,3-dihydro-1H-isoindol-5-yl]methyl}piperidin-3-yl)methyl]piperazin-1-yl}-2,3-dihydro-1H-isoindole-1,3-dione] | 
5 to 50 nM | 35 to 70% | < 5 nM |  | C (C ≤ 35) | CC(C)n1c(=O)n(C2CCC(=O)NC2=O)c2cccc(N3CCC(O[C@H]4CC[C@H](CN5CCN(Cc6cc7c(c(C(F)(F)F)c6)CN(c6cccc([C@]8(Cc9nncn9C)C[C@@H](C#N)C8)c6)C7=O)CC[C@H]5C)CC4)CC3)c21 (stereo partly drawn) [Example 323, (1r,3r)-3-[3-(6-{[(5R)-5-methyl-4-{[(1r,4r)-4-({1-[1-(2,6-dioxopiperidin-3-yl)-2-oxo-3-(propan-2-yl)-2,3-dihydro-1H-1,3-benzodiazol-4-yl]piperidin-4-yl}oxy)cyclohexyl]methyl}-1,4-diazepan-1-yl]methyl}-1-oxo-4-(trifluoromethyl)-2,3-dihydro-1H-isoindol-2-yl)phenyl]-3-[(4-methyl-4H-1,2,4-triazol-3-yl)methyl]cyclobutane-1-carbonitrile] | 
50 to 500 nM | > 70% | 5 to 50 nM | < 35% |  | Cn1cnnc1CC1(c2cccc(N3Cc4c(cc(N5CCC[C@H](CN6CCC(CN7CCC(CN8CCN(c9ccc%10c(c9)C(=O)N(C9CCC(=O)NC9=O)C%10=O)CC8)CC7)CC6)C5)cc4C(F)(F)F)C3=O)c2)COC1 (stereo partly drawn) [Example 16, 2-(2,6-dioxo-3-piperidyl)-5-[4-[[1-[[1-[[(3R)-1-[2-[3-[3-[(4-methyl-1,2,4-triazol-3-yl)methyl]oxetan-3-yl]phenyl]-3-oxo-7-(trifluoromethyl)isoindolin-5-yl]-3-piperidyl]methyl]-4-piperidyl]methyl]-4-piperidyl]methyl]piperazin-1-yl]isoindoline-1,3-dione] | 
5 to 50 nM | 35 to 70% | < 5 nM | 35 to 70% |  | COc1c(N2CCC(O[C@H]3CC[C@H](CN4CCC5(CC4)CN(c4cc6c(c(C(F)(F)F)c4)CN(c4cccc([C@]7(Cc8nncn8C)C[C@@H](C#N)C7)c4)C6=O)C5)CC3)CC2)ccc2c1CN(C1CCC(=O)NC1=O)C2=O (some centres unmarked) [Example 186, (1r,3r)-3-[(4-methyl-4H-1,2,4-triazol-3-yl)methyl]-3-{3-[1-oxo-6-(7-{[(1r,4r)-4-({1-[2-(2,6-dioxopiperidin-3-yl)-4-methoxy-1-oxo-2,3-dihydro-1H-isoindol-5-yl]piperidin-4-yl}oxy)cyclohexyl]methyl}-2,7-diazaspiro[3.5]nonan-2-yl)-4-(trifluoromethyl)-2,3-dihydro-1H-isoindol-2-yl]phenyl}cyclobutane-1-carbonitrile] | 
50 to 500 nM | > 70% | < 5 nM |  | C (C ≤ 35) | COC1CC(Cc2nncn2C)(c2cccc(N3Cc4c(cc(CN5CCN(C[C@H]6CC[C@H](OC7CCN(c8ccc9c(n8)C(C)N(C8CCC(=O)NC8=O)C9=O)CC7)CC6)CC5(C)C)cc4C(F)(F)F)C3=O)c2)C1 (some centres unmarked) [Example 294, 3-[7-methyl-5-oxo-2-(4-{[(1r,4r)-4-[(4-{[2-(3-{3-methoxy-1-[(4-methyl-4H-1,2,4-triazol-3-yl)methyl]cyclobutyl}phenyl)-3-oxo-7-(trifluoromethyl)-2,3-dihydro-1H-isoindol-5-yl]methyl}-3,3-dimethylpiperazin-1-yl)methyl]cyclohexyl]oxy}piperidin-1-yl)-5H,6H,7H-pyrrolo[3,4-b]pyridin-6-yl]piperidine-2,6-dione] | 
< 5 nM | > 70% | < 5 nM | 35 to 70% |  | C[C@@H]1CN(C[C@H]2CC[C@H](OC3CCN(c4ccc5c(c4F)CN(C4CCC(=O)NC4=O)C5=O)CC3)CC2)CCN1Cc1cc2c(c(C(F)(F)F)c1)CN(c1cccc(C3(Cc4nncn4C)COC3)c1)C2=O (stereo partly drawn) [Example 195, 3-[4-fluoro-1-oxo-5-(4-{[(1r,4r)-4-{[(3R)-3-methyl-4-{[2-(3-{3-[(4-methyl-4H-1,2,4-triazol-3-yl)methyl]oxetan-3-yl}phenyl)-3-oxo-7-(trifluoromethyl)-2,3-dihydro-1H-isoindol-5-yl]methyl}piperazin-1-yl]methyl}cyclohexyl]oxy}piperidin-1-yl)-2,3-dihydro-1H-isoindol-2-yl]piperidine-2,6-dione] | 

Structure (SMILES) | DC50 (Cbl-b [1]; [3]) | Dmax (Cbl-b [1]; [4]) | DC50 (Cbl-b [2]) | Dmax (Cbl-b [2]) | Cbl-b Degredation Method B Dmax (%) (Cbl-b [2]) | Dmax (Cbl-b [1])
CC1c2nc(N3CCC(CN4CCN(CC5CCN(Cc6cc7c(c(C(F)(F)F)c6)CN(c6cccc([C@]8(Cc9nncn9C)C[C@@H](C#N)C8)c6)C7=O)C(C)(C)C5)CC4)CC3)ccc2C(=O)N1C1CCC(=O)NC1=O (some centres unmarked) [Example 277, (1r, 3r)-3-(3-{6-[(4-{[4-({1-[6-(2,6-dioxopiperidin-3-yl)-7-methyl-5-oxo-5H, 6H, 7H-pyrrolo [3,4-b]pyridin-2-yl]piperidin-4-yl}methyl)piperazin-1-yl]methyl}-2,2-dimethylpiperidin-1-yl)methyl]-1-oxo-4-(trifluoromethyl)-2,3-dihydro-1H-isoindol-2-yl}phenyl)-3-[(4-methyl-4H-1,2,4-triazol-3-yl)methyl]cyclobutane-1-carbonitrile] | 5 to 50 nM |  | < 5 nM |  | C (C ≤ 35) | < 35%

Reference: patent publication US20260184710A1, “CASITAS B-LINEAGE LYMPHOMA PROTOONCOGENE B (CBL-B) DEGRADING COMPOUNDS AND ASSOCIATED METHODS OF USE” (Arvinas Operations, Inc., priority 2022, published 2026)
